Patent publication US20120252689A1, “GENE EXPRESSION SIGNATURE FOR WNT/B-CATENIN SIGNALING PATHWAY AND USE THEREOF” (priority 2011, published 2012)

Columns and labels:
active β-catenin [1] = assay: Western blot of active β-catenin after LiCl treatment of 293H and CCD1079SK cells; assay type: cell-based, human; details: 20 μM LiCl, 24 h in serum-free medium, FIG. 3B
Procedure: For positive regulation with LiCl treatment, 293H and CCD1079SKcells were plated in 6-well plate in a density of 2×10^5 cells/well/2 ml and cells were switched to serum-free medium 24 hours after plating. After 12 hours incubation in serum-free medium, cells were treated with or without 20 μM LiCl for 24 h in serum-free medium. At the end of treatment, cells were lysed in 200 μl of G6 lysis buffer and RNA was isolated with RT2 qPCR-Grade RNA Isolation Kit from SABiosciences according to manufacturer's protocol described in experimental protocol section. The protein extraction and western blot was carried out according to western blot protocol with mouse anti-active β-catenin antibody (1:1000). […] The RNA was isolated with RT2 qPCR-Grade RNA Isolation Kit from SABiosciences according to manufacturer's protocol described in experimental protocol section.
(§1) At the end of experimental treatment, cells were lysed in Modified RIPA buffer (150 mM NaCl, 50 mM TrisHCl, 1% IGEPAL, 0.5% sodium deoxycholate, 1 mM EDTA, 1% Triton X-100 and 0.1% SDS with protease and phosphatase inhibitor) (all chemicals from Sigma). […] After 15 minutes centrifuge at 15000 rpm at 4 degrees C., supernatant was transferred to a new 1.5 ml tube and protein concentration was measured with BCA protein assay according to manufacturer's standard protocol (Pierce). […]

[2] = test system: Wnt/β-catenin target genes such as β-catenin (CTNNB1), MYC, CCND1 and AXIN2; assay: Real-time RT-PCR of Wnt/β-catenin target genes after Wnt3a treatment of 293H cells; assay type: cell-based, human; details: 400 ng/ml Wnt3a, 12 hours, compared to untreated samples, FIG. 2B
Procedure: (§2) The protocol that was used to identify the subject gene signature is depicted schematically in FIG. 1. As depicted therein, human embryonic kidney 293H cells were plated in 6-well plate in a density of 10′ cells per well in 2 ml growth medium. Plated cells were incubated in a cell culture incubator at 37 degrees C. with 5% CO2 supplied. Twenty four hours after plating, cells were transfected with siRNA specifically targeting β-catenin or non targeting siRNA as control. For each well, 6 μl of SureFECT transfection reagent (SABiosciences, a QIAGEN company) was diluted into 200 μl of OptiMEM medium (Invitrogen). The diluted transfection reagent was mixed with 20 nM −β catenin targeting siRNA duplex D ([…] (SEQ ID NO: 65)) (SABiosciences, a QIAGEN Company) or non-targeting siRNA ([…] (SEQ ID NO: 66)) (SABiosciences, a QIAGEN owned company) as control. After incubation at room temperature for 20 min, the transfection mixture was added into 293H cells in 6-well plate with 2 ml growth medium. […]
For RNA extraction, cells were lysed in 200 μl of G6 buffer (SABiosciences, a QIAGEN company) for each well. […] The concentration of RNA was measured with Nanodrop spectrophotometer (Thermo SCIENTIFIC) and the RNA was further processed for real-time RT PCR or microarray gene expression profiling analysis. […]

active β-catenin [3] = assay: Western blot of active β-catenin after Wnt3a treatment of ten different cell lines; assay type: cell-based; details: 400 ng/ml Wnt3a, 12 h in serum-free medium, FIG. 3B
Procedure: To obtain ten positively regulated samples with Wnt3a treatment, ten different cell lines were plated in 6-well plates in a density of 2×10^5 cells/well/2 ml. After 24 h of plating, cells were switched to serum-free medium by removing normal culture medium, washing cells in PBS two times and replacing with 1 ml serum-free medium each well. After 12 hours in serum-free medium, cells were replaced with serum-free medium with or without 400 ng/ml Wnt3a in duplicate wells for an additional incubation of 12 h. At the end of 12 hours incubation, cells were either lysed in 50 μl modified RIPA buffer for protein lysate extraction or in 200 μl G6 lysis buffer for RNA isolation. The protein extraction and western blot was carried out according to western blot protocol with mouse anti-active β-catenin antibody (1:1000). […]
as §1

active β-catenin [4] = assay: Western blot of active β-catenin after Wnt3a treatment of 293H cells; assay type: cell-based, human; details: 400 ng/ml Wnt3a, 12 hour treatment in serum-free medium, compared to untreated samples, FIG. 2A
Procedure: as §2, with “control.” for “control. After incubation at room temperature for 20 min, the transfection mixture was added into 293H cells in 6-well plate with 2 ml growth medium.”
as §1

Molecule	active β-catenin protein levels (active β-catenin [1])	mRNA expression of Wnt/β-catenin target genes (CTNNB1, MYC, CCND1, AXIN2) [2]	active β-catenin protein levels (active β-catenin [3])	protein levels of active β-catenin (active β-catenin [4])
[Cl-].[Li+] [LiCl]	increased active β-catenin protein levels			
Wnt3a		upregulation of Wnt/β-catenin target genes	increased active β-catenin protein levels	increased protein levels of active β-catenin
